Series [1] addresses T1, hCAR (Homo sapiens, UniProt Q14994).
T1 construct: The human CAR LBD (Lys^108 – Ser^352) was amplified by PCR from cDNA; HIS6; made in house; host or cells: E. coli BL21(DE3)
T1 sequence (Q14994 108-352): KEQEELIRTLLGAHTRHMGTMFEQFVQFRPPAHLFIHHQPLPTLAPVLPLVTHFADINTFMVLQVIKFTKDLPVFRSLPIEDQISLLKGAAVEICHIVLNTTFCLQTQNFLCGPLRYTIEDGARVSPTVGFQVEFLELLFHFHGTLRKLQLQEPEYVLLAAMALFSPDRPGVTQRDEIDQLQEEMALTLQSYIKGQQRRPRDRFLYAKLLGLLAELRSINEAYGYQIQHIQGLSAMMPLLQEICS
In words: Bottom-up HDX-MS of hCAR with ligand. The conditions noted are these: 100 µM ligand. The format is binding. Here is the method: Human CAR protein was prepared at 10 µM in 100 mM ammonium acetate pH 7.25 and diluted into either equilibration buffer (10 mM phosphate buffer, pH 7.5) or deuterated reaction buffer (10 mM phosphate buffer, 150 mM NaCl, pH 7.5 in D2O). After labeling times of 1, 10 or 30 min at 25 °C, samples were mixed with equal volumes of quench buffer (100 mM phosphate buffer, pH 2.5) at 0 °C. […] HDX-MS was performed using a commercial Waters HDX system (M-class ACQUITY UPLC and Water Cyclic IMS Mass Spectrometer). Leucine enkephalin was used for mass correction, and all time points were carried out in triplicate. Samples were digested using an Enzymate BEH Pepsin column (2.1 × 30 mm, Waters) at 15 °C. Peptides were desalted on an ACQUITY UPLC BEH C18 VanGuard Pre-column (2.1 × 5 mm, Waters) and separated using an ACQUITY UPLC BEH C18 column (100 × 1 mm, Waters). ProteinLynx Global server (PLGS) and DynamX software was used for peptide identification and deuterium uptake analysis, respectively. PyMOL 2.5 was used for structural visualization.

The target in series [2] is T2, hCAR1+A (Homo sapiens, UniProt Q14994, INS274A).
T2 construct: expressed in transfected cells; host or cells: HepG2 (ATCC, HB-8065)
T2 sequence (Q14994 with tags, fused parts or gaps isoform Q14994-2 INS270A): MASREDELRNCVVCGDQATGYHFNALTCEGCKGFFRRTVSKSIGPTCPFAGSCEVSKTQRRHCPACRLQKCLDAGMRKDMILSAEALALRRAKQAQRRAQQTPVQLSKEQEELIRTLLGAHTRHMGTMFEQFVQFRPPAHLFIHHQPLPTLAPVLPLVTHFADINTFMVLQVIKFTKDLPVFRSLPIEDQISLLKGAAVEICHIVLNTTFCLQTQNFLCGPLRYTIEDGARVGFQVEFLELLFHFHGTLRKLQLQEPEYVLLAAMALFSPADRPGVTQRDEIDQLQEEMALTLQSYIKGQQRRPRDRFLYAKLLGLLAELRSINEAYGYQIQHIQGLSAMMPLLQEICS
T2 sequence (P19793 whole entry partner): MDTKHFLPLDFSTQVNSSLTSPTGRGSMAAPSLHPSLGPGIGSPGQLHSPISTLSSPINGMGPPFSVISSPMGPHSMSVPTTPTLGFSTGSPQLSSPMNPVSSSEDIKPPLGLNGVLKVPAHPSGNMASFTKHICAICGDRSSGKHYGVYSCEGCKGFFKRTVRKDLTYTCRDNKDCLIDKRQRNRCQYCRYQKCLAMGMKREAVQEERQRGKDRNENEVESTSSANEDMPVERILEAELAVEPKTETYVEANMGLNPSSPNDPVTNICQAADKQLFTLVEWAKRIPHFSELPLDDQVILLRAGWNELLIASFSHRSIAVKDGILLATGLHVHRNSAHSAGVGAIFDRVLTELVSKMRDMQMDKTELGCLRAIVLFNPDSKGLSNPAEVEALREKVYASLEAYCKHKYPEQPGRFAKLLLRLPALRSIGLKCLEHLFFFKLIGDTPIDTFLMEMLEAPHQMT
In words: HepG2 CYP2B6-2.2 kb reporter with hCAR1+A. The format is cell-based. The following applies: 1, 5 and 10 µM, 24 h. From the text: Activities of both firefly and renilla luciferases were detected using a Dual-Luciferase Kit (Promega).

In series [3] the target is T3, hCAR (Homo sapiens, UniProt Q14994).
T3 construct: expressed in transfected cells; host or cells: primary human hepatocytes infected with Ad/EYFP-hCAR
T3 sequence (Q14994 1-352): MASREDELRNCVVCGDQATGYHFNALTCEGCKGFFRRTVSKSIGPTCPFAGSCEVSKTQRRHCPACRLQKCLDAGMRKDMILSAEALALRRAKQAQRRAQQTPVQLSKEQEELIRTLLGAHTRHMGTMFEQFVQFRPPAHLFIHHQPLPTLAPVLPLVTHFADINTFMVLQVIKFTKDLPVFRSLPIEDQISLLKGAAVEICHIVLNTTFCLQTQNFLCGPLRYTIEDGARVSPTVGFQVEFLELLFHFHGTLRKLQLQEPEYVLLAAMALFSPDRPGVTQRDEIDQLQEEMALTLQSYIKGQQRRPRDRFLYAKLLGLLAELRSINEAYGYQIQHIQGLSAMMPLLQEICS
Nature of the series: hCAR nuclear translocation in primary human hepatocytes (Ad/EYFP-hCAR). The format is cell-based. The conditions noted are these: PHHs from two individuals; 10 µM, 8 h. Here is the method: 24 h after seeding at 0.25 × 10^6 cells/well in 24-well biocoat plate, PHHs were infected with 2 µL of adenoviral enhanced yellow fluorescent protein-tagged hCAR (Ad/EYFP-hCAR) followed by treatment with 0.1% DMSO, phenobarbital (PB) (1 mM), DIM (10 µM) or DIE (10 µM) for 8 h. Cells were washed with phosphate-buffered saline and fixed for 30 min with 4% formaldehyde at room temperature and then stained with 4,6-diamidine-2-phenylindole dihydrochloride for 30 min after washing three times with phosphate-buffered saline. The subcellular localization of hCAR and nuclei were visualized using a Nikon Eclipse Ti-E inverted fluorescence microscope (Nikon, Edgewood, NY) in YFP/FITC and DAPI fluorescence channels. Compounds were added to the plate in triplicate and results analyzed as detailed below with z-factors calculated as previously described.

Series [4] deals with T4, GAL4-hCAR LBD (Homo sapiens, UniProt Q14994).
T4 construct: chimeric yeast GAL4 DBD fused to an hCAR LBD; expressed in transfected cells; host or cells: HEK293T (ATCC, CRL-3216)
T4 sequence (Q14994 109-352 limits assumed): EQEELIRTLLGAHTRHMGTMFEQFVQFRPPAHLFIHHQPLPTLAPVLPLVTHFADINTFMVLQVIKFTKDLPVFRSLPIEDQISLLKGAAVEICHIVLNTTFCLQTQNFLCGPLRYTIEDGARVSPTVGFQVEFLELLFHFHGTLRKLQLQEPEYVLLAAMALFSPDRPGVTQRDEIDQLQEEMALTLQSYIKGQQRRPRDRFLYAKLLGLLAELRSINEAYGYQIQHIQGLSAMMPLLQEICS
Nature of the series: HEK293T GAL4-hCAR dual transfection reporter assay with PK11195 (antagonist displacement). The format is cell-based. The conditions noted are these: read-out: HEK293 GAL4-hCAR EC50. The source says:
The GAL4-hCAR, UAS-Luc, pcDNA-GAL4, pGL4-Renilla-Luc and pGEM plasmids were generously provided by Dr. David Mangelsdorf. The GAL4-hCAR plasmid encodes a constitutively expressed chimeric yeast GAL4 DBD fused to an hCAR LBD. The UAS-Luc plasmid encodes a Firefly luciferase reporter under the control of a GAL4 response element. The pcDNA plasmid encodes a constitutively expressed GAL4 DBD and was used as a control vector to determine non-specific luminescence in all HEK293T cellular reporter assays. The pGL4-Renilla-Luc plasmid encodes a constitutively expressed Renilla luciferase reporter and was used as a transfection control in the HEK293T cellular reporter assays.
HEK293T cells (ATCC, CRL-3216) were seeded at a density of 40,000 cells per well in white flat-bottom 96-well microplates (Greiner CellStar, 655073) in Dulbecco’s Modified Eagle Medium (DMEM) (2.5 g/l glucose) supplemented with 10% stripped fetal bovine serum with 100 units/ml of penicillin and incubated for 24 h at 37 °C. Transfection was carried out using 0.3 µL/well of Lipofectamine 2000 (Thermo Fisher Scientific, 11668019). Cells were transfected with 10 ng/well of either pcDNA or GAL4-hCAR, 50 ng/well of UAS-Luc, 5 ng/well of pGL4-Renilla-Luc, and 85 ng/well of pGEM for a total of 150 ng/well of DNA. […] Cells were incubated for 16-hours to allow build-up of luciferase and then processed using the Dual-Glo Luciferase Assay System (Promega, E2940) as per the manufacturer’s instructions. Incubations were performed in four technical replicates.
On the technique in general: In a reporter assay the amount or activity of a reporter protein is the signal.

The structures appear in SMILES notation.

In general, EC50 refers to the concentration at which the effect is half-maximal. Regarding `CC(c1c[nH]c2ccccc12)c1c[nH]c2ccccc12` [DIE, 3,3’-diindolylethane], in series [1], the “deuterium uptake change, residues 235–243 (H12/AF2)” value is on record as “increased uptake”; the “deuterium uptake difference, amino acids 217–234 (H11)” value is less than 10%; the “difference in deuterium uptake compared to apo hCAR, amino acids 51–65 (H3)” value is given as more than 20%. Also, the “hCAR1+A activity (CYP2B6 reporter)” value in series [2] is reported as “significantly boost hCAR1+A activity”. Moreover, the hCAR nuclear relocation entry in series [3] was “efficiently promote hCAR nuclear relocation”. The EC50 in series [4] was found to be 720 nM.

As to `c1ccc2c(Cc3c[nH]c4ccccc34)c[nH]c2c1` [DIM, diindolylmethane], the “hCAR1+A activity (CYP2B6 reporter)” value in series [2] is given as “significantly boost hCAR1+A activity”. In addition, the hCAR nuclear relocation entry in series [3] was “efficiently promote hCAR nuclear relocation”. For the same compound, the EC50 in series [4] worked out at 1740 nM.

Values taken from publication PMC10960024, “Diindoles produced from commensal microbiota metabolites function as endogenous CAR/Nr1i3 ligands” (Nature Communications, 2024).
